Data from patent US8729077B2, “Anti-viral compounds, compositions, and methods of use” (GlaxoSmithKline LLC, priority 2008, dated 2014).

Columns and labels:
[1] = test system: HCV genotype 1a subgenomic replicon; assay: HCV replicon assay, genotype 1a (luciferase); assay type: cell-based; settings: Hepatitis C virus; genotype 1a replicon stable cell line; luciferase activity measured 48 hours later; 10 point dose response; read-out: 1A pEC50 (converted)
Experimental: (§1) Protocol for Testing and Data Analysis of Compounds in the HCV Replicon Assay
(§2) Compounds were assayed for activity against HCV using the genotype 1a and 1b subgenomic replicon model systems. Stable cell lines bearing the genotype 1a and 1b replicons were used for screening of compounds. Both replicons are bicistronic and contain the firefly luciferase gene. The ET cell line is stably transfected with RNA transcripts harboring a I389luc-ubi-neo/NS3-3′/ET replicon with firefly luciferase-ubiquitin-neomycin phosphotransferase fusion protein and EMCV-IRES driven NS3-5B polyprotein containing the cell culture adaptive mutations (E1202G; T1280I; K1846T) (Krieger at al, 2001 and unpublished). The genotype 1a replicon is a stable cell line licensed from Apath LLC, modified to contain the firefly luciferase gene. The cells were grown in DMEM, supplemented with 10% fetal calf serum, 2 mM Glutamine, Penicillin (100 IU/mL)/Streptomycin (100 μg/mL), 1× nonessential amino acids, and 250-500 μg/mL G418 (“Geneticin”). They were all available through Life Technologies (Bethesda, Md.). The cells were plated at 0.5×10^4 cells/well in 384 well plates containing compounds. The final concentration of compounds ranged between 0.03 pM to […] and the final DMSO concentration of 0.5-1%.
(§3) Luciferase activity was measured 48 hours later by adding a Steady glo (Promega, Madison, Wis.). Percent inhibition of replication data was plotted relative to no compound control. Under the same condition, cytotoxicity of the compounds was determined using cell titer glo (Promega, Madison, Wis.). EC50s were determined from a 10 point dose response curve using 3-4-fold serial dilution for each compound, which spans a concentration range >1000 fold. BioAssay determines the level of inhibition for each compound by normalizing cross-talk corrected plate values against the negative (low or background, cells with no compound present) and positive (high DMSO, no cells) controls to determine Percent Inhibition:
(§4) These normalized values are exported to EC50 where they are plotted against the molar compound concentrations using the standard four parameter logistic equation:
(§5) A=minimum y D=slope factor
(§6) B=maximum y x=log10 compound concentration [M]

[2] = test system: HCV genotype 1b subgenomic replicon; assay: HCV replicon assay, genotype 1b (luciferase, ET cell line); assay type: cell-based; settings: Hepatitis C virus; genotype 1b replicon (ET cell line); luciferase activity measured 48 hours later; 10 point dose response; read-out: 1B pEC50 (converted)
Experimental: as §1, §2, §3, §4, §5, §6

| SMILES | EC50 [1] | EC50 [2] |
| --- | --- | --- |
| CN(C)[C@@H](C(=O)N1CCC[C@H]1c1nc(-c2ccc(-c3ccc(-c4c[nH]c([C@@H]5COC6(CCOCC6)N5C(=O)OCc5ccccc5)n4)cc3)cc2)c[nH]1)c1ccccc1 [example 1] | 1.58 nM | 0.00347 nM |
| CCC1=C[C@@H](c2ncc(-c3ccc(-c4ccc(-c5cnc([C@@H]6CCCN6C(=O)C(NC(=O)OC)C(C)C)[nH]5)cc4)cc3)[nH]2)N(C(=O)[C@H](NC(=O)OC)C(C)C)C1 (stereo partly drawn) [example 10, (1-{(S)-2-[5-(4′-{2-[(S)-4-Ethyl-1-((R)-2-methoxycarbonylamino-3-methyl-butyryl)-2,5-dihydro-1H-pyrrol-2-yl]-3H-imidazol-4-yl}-biphenyl-4-yl)-1H-imidazol-2-yl]-pyrrolidine-1-carbonyl]-2-methyl-propyl)-carbamic acid methyl ester] | 0.0316 nM | 0.00603 nM |
| COC(=O)N[C@H](C(=O)N1CCC[C@H]1c1ncc(-c2ccc(-c3ccc(-c4cnc([C@@H]5C=C(C)CN5C(=O)[C@H](NC(=O)OC)C(C)C)[nH]4)cc3)cc2)[nH]1)C(C)C [example 9, (1-{(S)-2-[5-(4′-{2-[(S)-1-((R)-2-Methoxycarbonylamino-3-methyl-butyryl)-4-methyl-2,5-dihydro-1H-pyrrol-2-yl]-3H-imidazol-4-yl}-biphenyl-4-yl)-1H-imidazol-2-yl]-pyrrolidine-1-carbonyl}-2-methyl-propyl)-carbamic acid methyl ester] | 0.0158 nM | 0.00776 nM |
| COC(=O)N[C@H](C(=O)N1CC(C2CC2)=C[C@H]1c1ncc(-c2ccc(-c3ccc(-c4cnc([C@@H]5CCCN5C(=O)[C@@H](NC(=O)OC)C(C)C)[nH]4)cc3)cc2)[nH]1)C(C)C [example 11, methyl[(1S)-1-({(2S)-2-[4-(4′-{2-[(2S)-4-cyclopropyl-1-((2S)-3-methyl-2-{[(methyloxy)carbonyl]amino}butanoyl)-2,5-dihydro-1H-pyrrol-2-yl]-1H-imidazol-4-yl}-4-biphenylyl)-1H-imidazol-2-yl]-1-pyrrolidinyl}carbonyl)-2-methylpropyl]carbamate] | 0.0126 nM | 0.00468 nM |
| CC=C1C[C@@H](c2ncc(-c3ccc(-c4ccc(-c5cnc([C@@H]6CCCN6C(=O)C(NC(=O)OC)C(C)C)[nH]5)cc4)cc3)[nH]2)N(C(=O)C(NC(=O)OC)C(C)C)C1 (stereo partly drawn) [example 12, (1-{(S)-2-[5-(4′-{2-[(S)-4-Ethylidene-1-(2-methoxycarbonylamino-3-methyl-butyryl)-pyrrolidin-2-yl]-3H-imidazol-4-yl}-biphenyl-4-yl)-1H-imidazol-2-yl]-pyrrolidine-1-carbonyl}-2-methyl-propyl)-carbamic acid methyl ester] | 0.0158 nM | 0.00437 nM |
